Results taken from patent US5607927A, “Cephalosporin derivative” (Meiji Seika Kaisha, Ltd., priority 1992, dated 1997).
≈ marks a conversion by molar mass, not a printed value.

Legend:
K. pneumoniae PCI 602 = experiment: minimum growth inhibitory concentration, ordinary serial dilution technique; assay type: cell-based; details: Klebsiella pneumoniae, PCI602, 10^6 CFU/ml, 35° C., 18 to 20 hours
Method: (§1) In this test example, antibacterial activities of the following typical examples of the compound (I) of the present invention upon various bacterial species are illustrated by showing their minimum growth inhibitory concentrations measured by the ordinary serial dilution technique. The measurement was made by inoculating 10^6 CFU/ml of each test strain on a Sensitivity Plate Medium N (Nissui Pharmaceutical Co., Ltd.) and culturing the inoculated cells at 35° C. for 18 to 20 hours.

Sta. aureus 209P JC-1 = experiment: as above; assay type: cell-based; details: Staphylococcus aureus, 10^6 CFU/ml, Sensitivity Plate Medium N, 35° C., 18 to 20 hours
Method: as §1

P. vulgaris GN 76 = experiment: as above; assay type: cell-based; details: Proteus vulgaris, GN76, 10^6 CFU/ml, 35° C., 18 to 20 hours
Method: as §1

[1] = tested on: Sta. epidermidis ATCC 14990; experiment: as above; assay type: cell-based; details: Staphylococcus epidermidis, ATCC14990, 10^6 CFU/ml, 35° C., 18 to 20 hours
Method: as §1

E. coli NIHJ JC-2 = experiment: as above; assay type: cell-based; details: Escherichia coli, NIHJJC2, 10^6 CFU/ml, 35° C., 18 to 20 hours
Method: as §1

M. morganii 1510/S-l = experiment: as above; assay type: cell-based; details: Morganella morganii, 1510/SL, 10^6 CFU/ml, 35° C., 18 to 20 hours
Method: as §1

[2] = acute toxicity (LD50) i.v. in mice; details: mouse, in vivo, iv
[3] = tested on: Sta. aureus M 126 (methicillin-resistant); experiment: minimum growth inhibitory concentration, ordinary serial dilution technique; assay type: cell-based; details: Staphylococcus aureus, 10^6 CFU/ml, 35° C., 18 to 20 hours
Method: as §1, with “hours. Test Compounds:” for “hours.”
(§2) Note: (*), methicillinresistant Staphylococcus aureus

[4] = tested on: Sta. aureus M 133 (methicillin-resistant); experiment: as above; assay type: cell-based; details: Staphylococcus aureus, 10^6 CFU/ml, 35° C., 18 to 20 hours
Method: as §1, with “hours. Test Compounds:” for “hours.”
as §2

[5] = concentration in blood after subcutaneous injection (serum concentration by HPLC); assay type: in vivo; details: sc, ICR mice, male, 0.5 mg per mouse subcutaneous; for Cmax: 4 weeks old, serum by HPLC, read-out: Maximum concentration in blood; for half-life / AUC: serum, Gauss-Newton method; for half-life: read-out: Half-life period (converted); for AUC: sampling 5 minutes to 2 hours, read-out: AUC (area under the plasma concentration-time curve)
Method: This test example illustrates that the following typical examples of the compound of the present invention can give and maintain their concentrations in blood at high levels after subcutaneous injection. Test Compounds:
The test was carried out in the following manner. Using five male mice of ICR line (4 weeks old, 1 individual/group for blood collection), 0.5 mg of each test compound dissolved in 0.2 ml of sterile water for injection use was administered to each mouse by subcutaneous injection. Blood collection was carried out after 5 minutes, 15 minutes, 30 minutes, 1 hour and 2 hours after the administration. Each of the thus collected blood samples was subjected to ordinary post-treatment, and then serum concentration of the cephem compound was measured by making use of HPLC. Half-life period and AUC (area under the plasma concentration-time curve) as pharmacokinetic parameters were calculated in accordance with the Gauss-Newton method.

| SMILES | MIC (K. pneumoniae PCI 602) | MIC (Sta. aureus 209P JC-1) | MIC (P. vulgaris GN 76) | MIC [1] | MIC (E. coli NIHJ JC-2) | MIC (M. morganii 1510/S-l) | LD50 [2] | MIC [3] | MIC [4] | Cmax [5] | half-life [5] | AUC [5] |
| --- | --- | --- | --- | --- | --- | --- | --- | --- | --- | --- | --- | --- |
| CO/N=C(\C(=O)NC1C(=O)N2C(C(=O)O)=C(Sc3nc4ccccc4s3)CS[C@H]12)c1nsc(N)n1 (some centres unmarked) [Compound A, 7-{(Z)-2-(5-amino-1,2,4-thiadiazol-3-yl)-2-methoxyiminoacetamido}-3-(benzothiazol-2-yl)thio-3-cephem-4-carboxylic acid] | 3.13 µg/mL (≈ 5.69 µM) | 0.39 µg/mL (≈ 0.71 µM) | 3.13 µg/mL (≈ 5.69 µM) | 0.39 µg/mL (≈ 0.71 µM) | 3.13 µg/mL (≈ 5.69 µM) | 1.56 µg/mL (≈ 2.84 µM) | 1000 to 1500 mg/kg | 3.13 µg/mL (≈ 5.69 µM) | 1.56 µg/mL (≈ 2.84 µM) | 126 µg/mL | 1.8 h | 343 µg·h/mL |
| CO/N=C(\C(=O)NC1C(=O)N2C(C(=O)O)=C(Sc3nc4ccccc4o3)CSC12)c1csc(N)n1 (centres unmarked) [Compound C, 7-{(Z)-2-(2-aminothiazol-4-yl)-2-methoxy-iminoacetamido}-3-(benzoxazol-2-yl)thio-3-cephem-4-carboxylic acid] | – | – | – | – | – | – | – | – | – | 141 µg/mL | 2.1 h | 442 µg·h/mL |
| CO/N=C(\C(=O)NC1C(=O)N2C(C(=O)O)=C(Sc3nc4cccnc4s3)CS[C@H]12)c1nsc(N)n1 (some centres unmarked) [Compound B, 7-{(Z)-2-(5-amino-1,2,4-thiadiazol-3-yl)-2-methoxyiminoacetamido}-3-(thiazolo[5,4-b]pyridin-2-yl)thio-3-cephem-4-carboxylic acid] | 3.13 µg/mL (≈ 5.68 µM) | 0.78 µg/mL (≈ 1.42 µM) | 12.5 µg/mL (≈ 22.7 µM) | 0.39 µg/mL (≈ 0.708 µM) | 3.13 µg/mL (≈ 5.68 µM) | 50 µg/mL (≈ 90.8 µM) | – | 12.5 µg/mL (≈ 22.7 µM) | 3.13 µg/mL (≈ 5.68 µM) | 110 µg/mL | 1.3 h | 230 µg·h/mL |
